≈ marks a conversion by molar mass, not a printed value. Structures can show the parent of a compound that is named as a salt. Where two headings read alike, the source gives them in different places.
What was measured:
[1] = system: E. faecium ATCC 35667; assay: In vitro antibacterial evaluation, MIC by agar dilution, E. faecium ATCC 35667; type: cell-based; conditions: Enterococcus faecium, ATCC35667, read-out: MIC
In short: (§1)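 Log-phase isolates were spot-inoculated at about 10^4 cfu per spot onto Mueller-Hinton agar plates containing twofold compound dilutions (highest working concentration 128 μg/mL, lowest ≤0.25 μg/mL, duplicates). After 16-20 h at 35-36 °C, the lowest growth-inhibiting level was taken as MIC, per NCCLS agar dilution.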

[2] = system: S. aureus ATCC 25923; assay: In vitro antibacterial evaluation, MIC by agar dilution, S. aureus ATCC 25923; type: cell-based; conditions: Staphylococcus aureus, ATCC25923
In short: as §1

[3] = system: E. faecalis ATCC 29212; assay: In vitro antibacterial evaluation, MIC by agar dilution, E. faecalis ATCC 29212; type: cell-based; conditions: Enterococcus faecalis, ATCC29212
In short: as §1

[4] = system: S. aureus ATCC 29213; assay: In vitro antibacterial evaluation, MIC by agar dilution, S. aureus ATCC 29213; type: cell-based; conditions: Staphylococcus aureus, ATCC29213
In short: as §1

[5] = system: S. aureus Col8A (Meth^S)(lac^-); assay: In vitro antibacterial evaluation, MIC by agar dilution, S. aureus Col8A; type: cell-based; conditions: Staphylococcus aureus
In short: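 Log-phase isolates were spot-inoculated at about 10^4 cfu onto Mueller-Hinton agar carrying duplicate two-fold compound levels, 128 μg/mL to ≤0.25 μg/mL, following NCCLS (1991). Plates were read after 16-20 h at 35°-36° C. The lowest growth-inhibiting concentration gave the MIC (μg/ml).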

[6] = system: P. aeruginosa ATCC 27853; assay: In vitro antibacterial evaluation, MIC by agar dilution, P. aeruginosa ATCC 27853; type: cell-based; conditions: Pseudomonas aeruginosa, ATCC27853, read-out: MIC
In short: as §1

[7] = system: S. epidermidis ATCC 31432; assay: In vitro antibacterial evaluation, MIC by agar dilution, S. epidermidis ATCC 31432; type: cell-based; conditions: Staphylococcus epidermidis, ATCC31432
In short: as §1

[8] = system: S. aureus 76 (Meth^R)(lac^+); assay: In vitro antibacterial evaluation, MIC by agar dilution, S. aureus 76; type: cell-based; conditions: Staphylococcus aureus, read-out: MIC
In short: as §1

[9] = system: S. haemolyticus (Meth^R); assay: In vitro antibacterial evaluation, MIC by agar dilution, S. haemolyticus; type: cell-based; conditions: Staphylococcus haemolyticus, read-out: MIC
In short: as §1

[10] = system: E. coli ATCC 25922; assay: In vitro antibacterial evaluation, MIC by agar dilution, E. coli ATCC 25922; type: cell-based; conditions: Escherichia coli, ATCC25922, read-out: MIC
In short: as §1

[11] = system: methicillinsusceptible S. aureus strain ATCC 13709; assay: In vivo antibacterial evaluation, murine model for lethal bacteremic peritonitis; design: species or system S. aureus in female Swiss-Webster mice; conditions: Staphylococcus aureus, ATCC13709, sc, 72 h, two equal SC doses at challenge and 2 hours later, mice, probit, read-out: ED50
Protocol: Groups of 5 female Swiss-Webster mice (Simonsen, Gilroy, Calif.) each are challenged by the intraperitoneal (IP) route with ten-fold increments of a bacterial inoculum. This permits calculation of the mean lethal dose (LD50) and the LD100. For preliminary evaluation of a new antibiotic, mice are challenged IP with an LD100 titer of bacteria. In two equal doses administered at the time of bacterial challenge and 2 hours later, groups of 10 mice each are treated subcutaneously with two-fold increments of the test drug and an antibiotic of known efficacy in mice and humans (i.e., positive control). Mice are observed for 72 h. Those alive at 72 h are considered long term survivors. The total drug dose in mg/kg that protects 50% of mice in a group from death is termed the mean protective dose (PD50). PD50 s are similarly determined for several pathogens. The quantitative endpoints for the new drug are then compared with those obtained with reference antibiotics.
Six ten-fold dilutions of inoculum suspended in 0.5 mL of sterilized 7% hog gastric mucin (Sigma) are injected IP in groups of 5 mice each. A control group of 5 mice receive mucin alone. Mice are observed for 72 h. Those alive at 72 h are considered long term survivors. The mean lethal dose (LD50) and 100% lethal dose (LD100) are determined by the probit test.
For antibiotic efficacy studies, mice are challenged IP with bacterial titers that will afford an LD100 for the test strain. In two equal doses administered at the time of bacterial challenge and 2 hours later, groups of 10 mice each are treated by the subcutaneous route (SC) with twofold increments of the test antibiotic; another group is treated similarly with a reference antibiotic of known efficacy in animals and man. Drug doses can range from 0.01 to 512 mg/kg. If the drug is poorly soluble, Tween 20 or propylene glycol will be employed to solubilize the drug. Animals are observed for 72 h. The 50% protective dose (PD50) is calculated in mg/kg by the probit method. The PD50 is the same as the 50% effective dose (ED50) and the 50% curative dose (CD50). Samples of blood from the hearts of all animals that die and from half the mice that survive are cultured on brain-heart infusion agar. Animals that received a protective dosage of the test drug will be alive at 72 h, although they may appear moderately ill to very ill during the observation period. […] Most of these mice will die within 6 to 48 h. Those alive at 72 h will be considered long term survivors.
data reported for challenge with methicillinsusceptible S. aureus strain

[12] = E. faecalis ATCC 29212, read-out: MIC
[13] = S. aureus ATCC 29213, read-out: MIC

Compound | MIC [1] [µg/mL] | MIC [2] [µg/mL] | MIC [3, 12] [µg/mL] | MIC [4] [µg/mL] | MIC [5] [µg/mL] | MIC [6] [µg/mL] | MIC [7] [µg/mL] | MIC [8] [µg/mL] | MIC [9] [µg/mL] | MIC [10] [µg/mL] | MIC ([2]; S. aureus ATCC 25923, read-out: MIC) [µg/mL] | MIC [4, 13] [µg/mL] | MIC ([7]; S. epidermidis ATCC 31432, read-out: MIC) [µg/mL] | MIC [3] [µg/mL] | ED50 [11] [mg/kg]
CCN=C(NCC)SCc1ccccc1SC1=C(C(=O)O)N2C(=O)[C@@H](NC(=O)Cc3ccccc3)[C@H]2SC1 [Cmpd 74, (7R)-7-[(Phenylacetyl)amino]-3-(2-N,N'-diethylisothiouroniummethylphenylthio)-3-cephem-4-carboxylate, inner salt] | 2 | < 0.25 | 1 | < 0.25 | < 0.25 | > 32 | < 0.25 | 32 | > 32 | > 32 |  |  |  |  | 
O=C(Cc1ccccc1)N[C@@H]1C(=O)N2C(C(=O)O)=C(Sc3ccccc3CSc3ncccn3)CS[C@H]12 [Cmpd 75] | 2 (≈ 3.63 µM) | < 0.25 | 1 (≈ 1.82 µM) | < 0.25 | < 0.25 | > 32 | < 0.25 | 32 (≈ 58.1 µM) | > 32 | > 32 |  |  |  |  | 
CNC(=N)SCc1ccccc1SC1=C(C(=O)O)N2C(=O)[C@@H](NC(=O)Cc3ccccc3)[C@H]2SC1 [Cmpd 76, (7R)-7-[(Phenylacetyl)amino]-3-(2-N-methylisothiouroniummethylphenylthio)-3-cephem-4-carboxylate, inner salt] | 2 | < 0.25 | 1 | < 0.25 | < 0.25 | > 32 | < 0.25 | 8 | 32 | > 32 |  |  |  |  | 
Cc1nnc(SCc2ccccc2SC2=C(C(=O)O)N3C(=O)[C@@H](NC(=O)Cc4ccccc4)[C@H]3SC2)s1 [Cmpd 77] | 2 (≈ 3.5 µM) | < 0.25 | 1 (≈ 1.75 µM) | < 0.25 | < 0.25 | > 32 | < 0.25 | 32 (≈ 56.1 µM) | > 32 | > 32 |  |  |  |  | 
N#CCC(=O)N[C@@H]1C(=O)N2C(C(=O)O)=C(Sc3cccnc3-c3ccccc3)CS[C@H]12 [Cmpd 85, (7R)-7-[(Cyanoacetyl)amino]-3-(2-phenylpyridin-3-ylthio)-3-cephem-4-carboxylic acid] | 2 (≈ 4.42 µM) | < 0.25 | 4 (≈ 8.84 µM) | < 0.25 | < 0.25 | > 32 | < 0.25 | 16 (≈ 35.4 µM) | 16 (≈ 35.4 µM) | > 32 |  |  |  |  | 
Nc1nc(/C(=N/OCCF)C(=O)N[C@@H]2C(=O)N3C(C(=O)O)=C(Sc4ccnn4-c4ccccc4)CS[C@H]23)cs1 [Cmpd 90, (7R)-7-[(Z)-2-(aminothiazol-4-yl)-2-(2-fluoroethyloxyimino)acetamido]-3-(1-N-phenylpyrazol-5-ylthio)-3-cephem-4-carboxylic acid] | 16 (≈ 27.1 µM) |  | 32 (≈ 54.3 µM) |  | 1 (≈ 1.7 µM) | 16 (≈ 27.1 µM) |  | 16 (≈ 27.1 µM) | 32 (≈ 54.3 µM) | 4 (≈ 6.78 µM) | 0.5 (≈ 0.848 µM) | 1 (≈ 1.7 µM) | < 0.25 |  | 
Nc1nc(-c2ccccc2)c(SC2=C(C(=O)O)N3C(=O)[C@@H](NC(=O)Cc4ccccc4)[C@H]3SC2)s1 [Cmpd 92, (7R)-7-[(Phenylacetyl)amino]-3-(2-amino-4-phenyl-thiazol-5-ylthio)-3-cephem-4-carboxylic acid] | 16 (≈ 30.5 µM) | < 0.25 | 16 (≈ 30.5 µM) | < 0.25 | < 0.25 | > 32 | < 0.25 | 16 (≈ 30.5 µM) | 8 (≈ 15.2 µM) | > 32 |  |  |  |  | 
O=C(Cc1ccccc1)N[C@@H]1C(=O)N2C(C(=O)O)=C(Sc3snnc3-c3ccccc3)CS[C@H]12 [Cmpd 93, (7R)-7-[(Phenylacetyl)amino]-3-(4-phenyl-1,2,3-thiadiazol-5-ylthio)-3-cephem-4-carboxylic acid] | 0.5 (≈ 0.979 µM) | < 0.25 |  | < 0.25 | < 0.25 | > 32 | < 0.25 | 8 (≈ 15.7 µM) | 8 (≈ 15.7 µM) | > 32 |  |  |  | < 0.25 | 
CC(C)N=C(NC(C)C)SCC(=O)N[C@@H]1C(=O)N2C(C(=O)O)=C(Sc3ccccc3CSC(=N)N)CS[C@H]12 [Cmpd 125, (7R)-7-[((N,N'-diisopropylisothiouronium)acetyl)amino]-3-(2-isothiouroniummethylphenylthio)-3-cephem-4-carboxylate, trifluoroacetic acid salt] | 2 |  | 0.25 |  | 0.5 | > 32 |  | 8 | 8 | > 32 |  | 0.5 |  |  | > 10
CSCC(=O)N[C@@H]1C(=O)N2C(C(=O)O)=C(Sc3ccccc3CSC(=N)N)CS[C@H]12 [Cmpd 127, (7R)-7-[(methylthioacetyl)amino]-3-(2-isothiouroniummethylphenylthio)-3-cephem-4-carboxylate, inner salt] | 1 |  | 1 |  | ≤ 0.06 | > 32 |  | 8 |  | > 32 |  | ≤ 0.06 |  |  | 0.59

From US5607926A, “Cephalosporin antibiotics” (Microcide Pharmaceuticals, Inc., priority 1995, dated 1997)
